Assays:
TgCRND8 mice = experiment: Tolerability of chronic oral administration in TgCRND8 mice; assay type: in vivo; conditions: 25 mg/kg per day, nearly 3 months
Source text: All animal handling experiments were approved by the Hong Kong Baptist University Committee on the Use of Human and Animal Subjects in Teaching and Research (HASC, approval #: 12-13/0030). TgCRND8 mice expressing human APP with Swedish (K670N/M671L) and Indiana (V717F) mutations were used to evaluate the effect of baicalein on Aβ. Heterozygous TgCRND8 mice on a C57BL/6J background were used to breed a colony of experimental animals. The TgCRND8 mouse is an early onset model of AD with visible Aβ deposits in the brains of the animals starting from 3 months of age as described in Chishti M A, Yang D S, Janus C, Phinney A L, Home P, Pearson J, Strome R, Zuker N, Loukides J, French J, Turner S, Lozza G, Grilli M, Kunicki S, Morissette C, Paquette J, Gervais F, Bergeron C, Fraser P E, Carlson G A, George-Hyslop P S, Westaway D. (2001) Early-onset amyloid deposition and cognitive deficits in transgenic mice expressing a double mutant form of amyloid precursor protein 695. J Biol Chem 276: 21562-21570. The animals are housed in a controlled environment under a 12/12 hours light/dark cycle. They are allowed free access to food and water. The oral administration of baicalein (25 mg/kg/d) is commenced at 2 months of age and ended at 5 months before being killed. […]

[1] = tested on: APP processing (F1-APP, pAPPThr668, CTFs, sAPPα, sAPPβ-sw) in N2a-SwedAPP cells; experiment: Western blot of APP metabolic products in N2a-SwedAPP cells; assay type: cell-based, murine; parameters: key to Fl-APP (overall influence) / CTFs (overall influence) / sAPPα (overall influence) / sAPPβ (overall influence): ↓ decreased; ↑ increased; ? unchanged
Experimental: N2a-SwedAPP cells were obtained from Dr. Gopal Thinakaran (University of Chicago, Chicago, Ill., USA). N2a-SwedAPP cells were cultured in Dulbecco's modified Eagle's medium (DMEM) and OPTI-MEM medium in a 1:1 ratio with 5% FBS, 50 μg/mL penicillin, 50 μg/mL streptomycin and 200 μg/mL G418 as previously described in Thinakaran G, Teplow D B, Siman R, Greenberg B, Sisodia S S (1996) Metabolism of the “Swedish” amyloid precursor protein variant in neuro2a (N2a) cells. J Biol Chem 271: 9390-9397. N2a-SwedAPP cells were incubated at 37° C. in a 5% CO2/95% humidity incubator. Cells were seeded 24 hours prior to the treatments. When growth reached close to 90% of confluence, cells were transferred into DMEM with 1% FBS for loading extracts. The final concentration of DMSO in all experiments was 0.1%, and this concentration caused no cytotoxicity.
To detect the levels of APP metabolic products, the cell lysates and the conditioned media were prepared as described in Durairajan S S K, Liu L F, Lu J H, Koo I, Maruyama K, Chung S K, Huang J D, Li M. (2011) Stimulation of non-amyloidogenic processing of amyloid-β protein precursor by cryptotanshinone involves activation and translocation of ADAM10 and PKC-α. J Alzheimer's Dis 25: 245-262, with minor modification. N2a-SwedAPP cells were seeded at a density of 4×10^5/mL in DMEM medium in a 6-well plate and cultured for 1 day. After transfer, cells were treated with different doses of RC, CP, FG and RS for 48 hours, then the extracellular media were collected for detection of sAPPα and sAPPβ-sw, and cells were harvested to quantify F1-APP and β-actin by Western blot analysis, as described previously by Durairajan et al. For intracellular APP, APP-CTFs and Aβ preparation, cells were washed with ice-cold PBS twice and solubilized in ice-cold RIPA buffer with protease inhibitor cocktail added. Lysates were collected and centrifuged at 16,000×g for 15 minutes at 4° C. The resulting supernatants were collected, and their protein concentrations were determined with bicinchoninic acid (BCA) protein assay reagent (Thermo Scientific, IL, USA). For sAPPα and sAPPβ-sw detection, the conditioned media are collected and frozen in liquid nitrogen, subjected to lyophilization at −40° C. under vacuum of 105 μbar for 2 days in order to remove all liquid. The conditioned media were standardized to total cell lysate protein.
For Western blot analysis from cell culture or mouse brain, 10-30 μg total protein is separated on 10% and 15% SDS-PAGE gels and blotted onto PVDF membranes for the detection of full length APP (F1-APP), CTFs, sAPPα, sAPPβ-sw, 3-actin and phosphorylated APP (pAPPThr668). After blocking with 5% skimmed milk, the blots are incubated with primary antibodies overnight at 4° C. with shaking. Blots are washed and incubated with HRP-conjugated secondary antibodies. The goat anti-mouse IgG is used when the primary antibody is 6E10 (1:1000), sAPPβ-sw (1:100), or anti-β-actin (1:5000), and the goat anti-rabbit IgG is used when the primary antibody is anti-CT15 (1:5000) or pAPPThr668 (1:1000). After incubation with HRP-conjugated secondary antibody, immunoblots are treated with ECL and developed using X-ray films (Fujifilm). Films are scanned, and the band intensity is analyzed using Image J software (NIH Image).
Stripped CT15 and 6E10 probed membranes are reincubated with pAPPThr668 and sAPPβ-sw 6A1 antibodies, respectively.
Western blotting of N2a-SwedAPP cells is used to test differences in the processing of Swedish mutant APP by HLJDT components. Several antibodies are used in Western blot analysis: CT15 recognizes full length APP (F1-APP), 6E10 identifies only α-secretase-cleaved APP i.e sAPPα, and the sAPPβ-sw specific for β-secretase cleavage of Swedish mutant APP.

## O=c1cc(-c2ccccc2)oc2cc(O)c(O)c(O)c12 [baicalein]
TgCRND8 mice
  adverse side effects: nor did it cause any notable adverse side effects
  change of animal body weight: did not significantly change
[1]; 12.5 μM, 48 hours
  maximal increase of CTFs, fold of basal release: 2.36 fold
  maximal increase of F1-APP, fold of basal release: 1.68 fold
  maximal increase of pAPPThr668, fold of basal release: 1.58 fold
  maximal secretion of sAPPα, fold of basal release: 2.65 fold
  maximal secretion of sAPPβ-sw, fold of basal release: 1.70 fold
[1]; N2a-SwedAPP cells
  CTFs (overall influence): ↑
  Fl-APP (overall influence): ↑
  sAPPα (overall influence): ↑
  sAPPβ (overall influence): ↑
